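Grown in 96-well plates, cells were treated for 48 hours with each compound at five concentrations. Insufficient inhibition: endpoint recorded as highest concentration tested. Here, GI50 denotes the concentration required for 50% inhibition of growth. TGI: total growth inhibition.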

Some test systems named below: HCT-116 colon; MDA-N; NCI/ADR-RES ovarian; OVCAR-3 ovarian; OVCAR-4 ovarian; RXF 393 renal; 786-0 renal; HS 578T breast; DLD-1 colon; DMS 114 small cell lung; DMS 273 small cell lung; HOP-18 NSCLC; LXFL 529 NSCLC; M19-MEL melanoma.
What all share (assay): inhibition of tumour cell growth, NCI panel, 48 h

Take `COC(=O)N1CC2C3C4CC(C(c5ccccc5)=C4c4ccccc4)C3C21` (centres undefined): the TGI turned out to be 25.7 µM in the assay on HCT-116 colon; 46.5 µM in the assay on MDA-N; 35.4 µM in the assay on NCI/ADR-RES ovarian; 36.7 µM with OVCAR-3 ovarian; 29.5 µM in the assay with OVCAR-4 ovarian; 39.9 µM with RXF 393 renal.

For `COC(=O)c1cnc(Cl)cn1`, the TGI with 786-0 renal was more than 100 µM; in the assay with HCT-116 colon, more than 100 µM; in the assay on HS 578T breast, more than 100 µM; in the assay with NCI/ADR-RES ovarian it was more than 100 µM; in the assay on OVCAR-4 ovarian it was 45.5 µM.

Consider `CC(C)C(N)=O`, for which the TGI in the assay with 786-0 renal, in the assay with DLD-1 colon, in the assay on DMS 114 small cell lung, in the assay on DMS 273 small cell lung, with HCT-116 colon and in the assay on HOP-18 NSCLC was more than 5000 µM throughout. In addition, the TGI in the assay on LXFL 529 NSCLC, in the assay with M19-MEL melanoma, with OVCAR-4 ovarian and in the assay on RXF 393 renal was more than 5000 µM throughout.

Take `O=C(O)/C(Cc1ccc([N+](=O)[O-])cc1)=N\O`: the TGI with 786-0 renal, in the assay with HCT-116 colon, with HS 578T breast, in the assay with MDA-N, with NCI/ADR-RES ovarian and in the assay with OVCAR-3 ovarian was more than 100 µM in each case. For the same compound, the TGI with OVCAR-4 ovarian and with RXF 393 renal was more than 100 µM in each case.

Consider `O=C(Nc1ccc(-n2ccc3c(NC(=O)c4ccccc4)ncnc32)cc1)Nc1cccc(Cl)c1Cl`, for which the GI50 was 0.673 µM with HCT-116 colon; 0.856 µM in the assay with HS 578T breast; 1.58 µM in the assay with NCI/ADR-RES ovarian; 1.19 µM with OVCAR-3 ovarian; 0.878 µM in the assay with OVCAR-4 ovarian; 0.796 µM in the assay with RXF 393 renal. For the same compound, the TGI was determined as 2.38 µM in the assay on HCT-116 colon; 2.6 µM with HS 578T breast; 7.29 µM in the assay with NCI/ADR-RES ovarian; 2.75 µM with OVCAR-3 ovarian; 1.91 µM in the assay on OVCAR-4 ovarian; 1.79 µM in the assay with RXF 393 renal.

For the compound `CCOC(=O)CC1(c2cccc3ccccc23)OC(=O)c2ccccc21` (centres undefined), the TGI in the assay with DLD-1 colon, in the assay on DMS 114 small cell lung, in the assay on DMS 273 small cell lung, with HOP-18 NSCLC, with LXFL 529 NSCLC and in the assay with M19-MEL melanoma was more than 100 µM each time. Also, the TGI was more than 100 µM in the assay on OVCAR-3 ovarian, more than 100 µM in the assay on OVCAR-4 ovarian and 70.1 µM in the assay with RXF 393 renal.

For `O=C(O)CC1NCc2cc3ccccc3nc21` (centres undefined), the TGI with 786-0 renal, with HCT-116 colon, with HS 578T breast, with MDA-N, with NCI/ADR-RES ovarian and in the assay on OVCAR-3 ovarian was more than 100 µM each time. The TGI with OVCAR-4 ovarian and in the assay on RXF 393 renal was more than 100 µM in each case.

On to `CC(=O)NC1=C[C@@H]([C@H]2COC(C)(C)O2)OC1=O`, for which the TGI in the assay on DLD-1 colon, in the assay on DMS 114 small cell lung, with DMS 273 small cell lung, in the assay on HCT-116 colon, with HOP-18 NSCLC and with M19-MEL melanoma was more than 100 µM throughout. Further, the TGI in the assay on NCI/ADR-RES ovarian, in the assay on OVCAR-3 ovarian and in the assay on RXF 393 renal was more than 100 µM each time.

Take `O=C1Nc2ccc(Cl)cc2/C1=C\c1c(Cl)nc2sccn12`: the TGI in the assay on HCT-116 colon was 34 µM; with MDA-N it was 8.42 µM; with NCI/ADR-RES ovarian, 17.6 µM; with OVCAR-3 ovarian, 12.4 µM; in the assay on OVCAR-4 ovarian, more than 100 µM; with RXF 393 renal it was more than 100 µM.

As for `C=C(OC1C(C)=C2C(C1OC(=O)CCCCCCC)C(C)(OC(C)=O)CC(OC(=O)CCC)C1(O)C2OC(=O)C1(C)O)/C(C)=C/C` (centres undefined), the TGI in the assay on DLD-1 colon came out at 16.4 µM; in the assay with DMS 114 small cell lung, 0.207 µM; with DMS 273 small cell lung, 0.453 µM; in the assay on HCT-116 colon it was 0.000151 µM; in the assay on HOP-18 NSCLC, 9.19 µM; in the assay on M19-MEL melanoma, 1.29 µM. The TGI in the assay on NCI/ADR-RES ovarian came out at 6.51 µM; in the assay on OVCAR-4 ovarian, 0.512 µM; in the assay on RXF 393 renal, 1.53 µM. The GI50 in the assay on HCT-116 colon, in the assay with OVCAR-3 ovarian and in the assay on OVCAR-4 ovarian was less than 0.0001 µM each time.

Take `c1csc(C[N+]23CN4CN(CN(C4)C2)C3)c1`: the TGI with 786-0 renal is 58.8 µM; with DLD-1 colon, more than 100 µM; with DMS 114 small cell lung, 40.2 µM; in the assay with DMS 273 small cell lung, 41.8 µM; in the assay on HCT-116 colon, more than 100 µM; with LXFL 529 NSCLC, 43.1 µM. In addition, the values for the TGI in the assay with M19-MEL melanoma, with OVCAR-3 ovarian and in the assay with OVCAR-4 ovarian were 56 µM, more than 100 µM and 49 µM, respectively.

The values above are taken from PubChem BioAssay (NCI).
